Data on three compounds can be found in ChEMBL document CHEMBL1146467, “A new phloroglucinol derivative from the brown alga Eisenia bicyclis: potential for the effective treatment of diabetic complications” (J Nat Prod, 2004).

The nature of data set [1]: Inhibition of advanced glycation end product formation assessed as CML level at 1 mM after 7 days in 0.1 M phosphate buffer at pH 7.4 by ELISA relative to control. The settings on record: pH 7.4, 168 h, 1000 µM. The format is physicochemical. In general terms: In an ELISA, binding on a coated surface is turned into a signal by an enzyme label.
Data set [2] is described as follows: Inhibition of alpha-amylase at 1 mM after 15 mins by dinitrosalicylic acid method relative to control.

As for `N=C(N)NN` [PIMAGEDINE], the “inhibition (INH)” value in data set [1] came out at 76%.
As usually defined, the inhibition is the share of the control response that was lost under treatment. The low end stands for little suppression, the high end for strong suppression. Turning to `Oc1cc(O)cc(Oc2c(O)cc(O)c3c2Oc2c(O)cc(Oc4c(O)cc(Oc5c(O)cc(O)c6c5Oc5c(O)cc(O)cc5O6)cc4O)cc2O3)c1` [DIECKOL], the inhibition in data set [2] worked out at 97.5%. Further, in data set [1], the “inhibition (INH)” value was 86.7%.
On the same counts, the results for `Oc1cc(O)cc(Oc2c(O)cc(O)c3c2Oc2c(O)cc(O)cc2O3)c1` [ECKOL] are 87.5% and 96.2%.
